This passage reports IC50, MTD and Tumor inhibition results from patent US20170362388A1, “Disulfide Polymers and Methods of Use” (The Brigham and Women's Hospital, Inc., priority 2014, published 2017).

Converted amounts (≈) assume the structure as drawn.

The test system of one series is Hela and DU145 cells. As to the kind of experiment: In vitro anticancer performance of docetaxel-loaded NPs, alamar blue. Type of series: cell-based. Here is the method:
Hela, MCF-7, A549, and DU145 cells were used to evaluate in vitro anticancer performance of docetaxel-loaded NPs (Cys-OMe-8/Cys-8E NPs with 10 wt % docetaxel loaded with docetaxel concentration ranging from 1 ng/ml to 500 ng/mL). Hela, MCF-7, A549, and DU145 cells were used. Cells (5,000 cells/well) were seeded in 96-well plates the day before use, and cultured according to recommendations from ATCC. Cells were treated with different concentrations of free docetaxel or docetaxel loaded NP for 4 h or 48 h (N=5). For the 4 h experiment, treated cells were washed twice with PBS buffer and the plate was incubated for another 44 h after replacement of fresh medium. Cell viability at 48 h was determined by alamar blue assay. As a control, the polymer cytotoxicity on Hela cells was ascertained using empty NPs.
In FIGS. 24B and 24D: DU145 cells were treated with docetaxel-loaded NPs for 4 h and 48 h, respectively.
The Alamar blue assay was used to evaluate the NP cytotoxicity. Briefly, 10% 0.1 mg/mL alamar blue was first added into each well and the plate was incubated for another 2 h. Then the fluorescence intensity was measured by a microplate reader (excitation/emission=530 nm/590 nm).

Another series in a line: Maximum tolerated dose. Conditions: mouse, in vivo; normal Balb/c mice.
In series [1] the test system is A549 Human Lung Carcinoma Xenograft. The series is described as follows: Antitumor efficacy of docetaxel-loaded NPs. Conditions: 5 mg/kg docetaxel equivalent, iv tail vein, two injections. In kind it is in vivo, mice. The procedure: A549 cell suspension (100 μL, equivalent to 5×10^6 cells) was first mixed with 100 μL Matrigel (BD scientific Co.), then subcutaneously injected into the right flank of 5-week-old female athymic nude mice (Charles River). The treatment was initiated on the 9th day, when solid tumor reached ˜100 mm^3. Tumor-bearing mice were divided into 4 groups and injected […] on the 9th and 23rd days after tumor inoculation with: (i) 1× PBS (ii) docetaxel 5 mg/kg (MTD), (iii) Cys-OMe-8/Cys-8E NPs at a docetaxel equivalent dose of 5 mg/kg (MTD), (iv) Cys-OMe-8/Cys-8E NPs at a docetaxel equivalent dose of 10 mg/kg. Control or drugs were administered by intravenous injection in the lateral tail vein (10 μL per g of body weight). Tumor dimension and body weight were recorded every other day. Tumor volume was calculated as follows: Volume [mm^3]=[…]. Mice were regularly monitored (every other day) for physical performance and were euthanized upon exceeding 15% weight loss, over 1500 mm^3 volume or if tumor ulceration was observed. Prior to the experiment, the maximum tolerated dose (MTD) of free docetaxel was established in normal Balb/c mice at 5 mg/kg. Tumor volumes at Day 30 were compared using the ANOVA analysis.
FIG. 30 is a plot of the antitumor effects of docetaxel-loaded Cys-OMe-8/Cys-8E nanoparticles in A549 tumor bearing mice. […]

What is called IC50 is the concentration that gives 50% inhibition. Low values mean inhibition by little substance, high ones a need for much substance. A word on the MTD: it is the largest dose that counted as tolerated. Consider `CC(=O)O[C@@]12CO[C@@H]1C[C@H](O)[C@@]1(C)C(=O)[C@H](O)C3=C(C)[C@@H](OC(=O)[C@H](O)[C@@H](NC(=O)OC(C)(C)C)c4ccccc4)C[C@@](O)([C@@H](OC(=O)c4ccccc4)[C@H]21)C3(C)C` [docetaxel], for which the IC50 was roughly 0.1 µg/mL (≈ 0.124 µM) in the series with Hela and DU145 cells (4 h treatment, viability at 48 h); roughly 0.005 µg/mL (≈ 0.00619 µM) in the series with Hela and DU145 cells (48 h treatment). Besides, in “Maximum tolerated dose”, the MTD amounted to 5 mg/kg. In series [1], the Tumor inhibition result was “only limited tumor inhibition”.
